In patent publication EP4692088A1, “COMPOUND ACTING AS WRN HELICASE INHIBITOR” (SHANGHAI JEYOU PHARMACEUTICAL CO., LTD., priority 2023, dated 2024):

What was measured:
WRN enzyme [1] = target: T1, WRN enzyme (Homo sapiens, UniProt Q14191); test: WRN helicase activity assay (unwinding of BHQ2/Cy5-labelled double-stranded DNA, fluorescence); assay type: biochemical; conditions: Table 3, 30 min pre-incubation, 30 min reaction
T1 construct: host or cells: eukaryotic cells (not further specified)
Text: The WRN enzyme used in the experiment has a His-TEV tag at the N-terminus and is expressed in eukaryotic cells with a purity of 90%. The two single-stranded DNAs used for assay are labeled with BHQ2 and Cy5, respectively. When two fluorophores are in close proximity (when the DNA is in a double-stranded state), no fluorescence signal is detected due to the quenching effect. WRN has helicase activity, which enables the unwinding of double-stranded DNA to form single strands, thereby generating a fluorescence signal.
Two labeled single-stranded DNA strands were annealed to form double-stranded DNA. Annealing buffer: 12 mM Tris (pH 8.0), 300 mM NaCl, 12 mM MgCl2, 2 mM DTT. Annealing program: 95°C, 5 min.
2× WRN enzyme (2 nM) and 2× substrate (100 nM double-stranded DNA, 1000 nM capture DNA, 100 µM ATP) were prepared using buffer (20 mM Bicine, 10 mM KCl, 1 mM MgCl2, 0.005% BSG, 1 mM TCEP, 0.1% F-127, pH 7.5). The test compound was dissolved in DMSO to 10 mM and was gradient-diluted using a 96-well V-bottom plate. 0.5 µL of compound was added to 25 µL of 2× WRN enzyme and incubated at room temperature for 30 min. 25 µL of 2× substrate was added, and the reaction was carried out at room temperature for 30 min. Detection was performed using a microplate reader with an excitation wavelength of 620 nm and an emission wavelength of 685 nm.
The concentration-effect curve was fitted using GraphPad Prism 8 software, and the compound concentration for 50% inhibition (IC50) was calculated. The percentage inhibition for each compound concentration was first calculated, and then the concentration-effect curve was fitted using the "log(inhibitor) vs. normalized response -- Variable slope" equation in GraphPad Prism 8 software to obtain the IC50. [formula] • Positive control: 25 µL 2× WRN enzyme + 0.5 µL DMSO + 25 µL 2× substrate • Negative control: 25 µL 2× buffer + 0.5 µL DMSO + 25 µL 2× substrate

WRN enzyme [2] = target: T1, WRN enzyme; test: biochemical
Procedure: The WRN enzyme used in the experiment has a His-TEV tag at the N-terminus and is expressed in eukaryotic cells with a purity of 90%. The assay kit (ADP-Glo™ Kinase Assay) was purchased from Promega (Cat. No. V9101), aliquoted, and then stored in the refrigerator at -40°C. This kit could quantitatively detect the amount of ADP generated in the reaction. WRN hydrolyzed ATP to produce ADP. The ADP-Glo reagent was added to deplete excess ATP in the reaction system, followed by the addition of Kinase Detection Reagent to convert the ADP produced by the reaction into ATP and produce chemiluminescence. The enzyme activity of WRN can be reflected by detecting the chemiluminescence signal using a microplate reader.
Single-stranded DNA was annealed to form double-stranded DNA. 5× Annealing Buffer: 50 mM Tris pH 8.0, 100 mM NaCl. Annealing program: 95°C, 5 min.
2× WRN enzyme (1 nM) and 2× substrate (1 nM double-stranded DNA, 100 µM ATP) were prepared using a buffer (20 mM Bicine (pH 7.5), 10 mM KCl, 10 mM MgCl2, 0.005% BSG, 0.002% Tween 20, 1 mM TCEP). The test compound was dissolved in DMSO to 10 mM and was gradient-diluted using a 96-well V-bottom plate. First, 25 µL of 2× WRN enzyme and 0.5 µL of compound were added to a 96-well plate and incubated at room temperature for 30 min. Then, 25 µL of 2× substrate was added, and the reaction was carried out at room temperature for 60 min. 5 µL was taken from the reaction plate and transferred to a 384-well plate for detection. 5 µL of ADP-Glo reagent was added and incubated at room temperature for 60 min, followed by the addition of 10 µL of Kinase Detection Reagent and incubation at room temperature for 40 min. The chemiluminescence signal was detected using a microplate reader.

SW48 cells = test: Cell proliferation assay (CellTiter-Glo), SW48; assay type: cell-based; conditions: Homo sapiens, SW48, 120 h, SW-48, 5 days incubation
Procedure: (§1) SW48 cells were plated at a density of 1,500 cells/well, and LoVo, HCT116, and SW620 cells were plated at a density of 800 cells/well in a 96-well cell culture plate, and cultured in a 37°C incubator overnight. The test compounds, which were gradient-diluted with DMSO, were added, and after incubation for 5 days, cell viability was detected using a CellTiter-Glo kit. The CellTiter-Glo reagent was equilibrated to room temperature, and an appropriate amount was added to the cell plate, followed by shaking at room temperature for 12 min. The luminescence signal was detected using a microplate reader.
(§2) The luminescence signal values of the DMSO-treated wells and cell-free wells were used as negative and positive controls, respectively, to calculate the inhibition rate of compound on cell proliferation. The concentration-inhibition curve was fitted using the "log(inhibitor) vs. normalized response -- Variable slope" equation in GraphPad Prism 8 software to obtain the IC50. [formula]

SW620 cells = test: Cell proliferation assay (CellTiter-Glo), SW620; assay type: cell-based; conditions: Homo sapiens, 120 h, SW-620 (MSS), 5 days incubation
Procedure: as §1, §2

T1 sequence (Q14191 whole entry): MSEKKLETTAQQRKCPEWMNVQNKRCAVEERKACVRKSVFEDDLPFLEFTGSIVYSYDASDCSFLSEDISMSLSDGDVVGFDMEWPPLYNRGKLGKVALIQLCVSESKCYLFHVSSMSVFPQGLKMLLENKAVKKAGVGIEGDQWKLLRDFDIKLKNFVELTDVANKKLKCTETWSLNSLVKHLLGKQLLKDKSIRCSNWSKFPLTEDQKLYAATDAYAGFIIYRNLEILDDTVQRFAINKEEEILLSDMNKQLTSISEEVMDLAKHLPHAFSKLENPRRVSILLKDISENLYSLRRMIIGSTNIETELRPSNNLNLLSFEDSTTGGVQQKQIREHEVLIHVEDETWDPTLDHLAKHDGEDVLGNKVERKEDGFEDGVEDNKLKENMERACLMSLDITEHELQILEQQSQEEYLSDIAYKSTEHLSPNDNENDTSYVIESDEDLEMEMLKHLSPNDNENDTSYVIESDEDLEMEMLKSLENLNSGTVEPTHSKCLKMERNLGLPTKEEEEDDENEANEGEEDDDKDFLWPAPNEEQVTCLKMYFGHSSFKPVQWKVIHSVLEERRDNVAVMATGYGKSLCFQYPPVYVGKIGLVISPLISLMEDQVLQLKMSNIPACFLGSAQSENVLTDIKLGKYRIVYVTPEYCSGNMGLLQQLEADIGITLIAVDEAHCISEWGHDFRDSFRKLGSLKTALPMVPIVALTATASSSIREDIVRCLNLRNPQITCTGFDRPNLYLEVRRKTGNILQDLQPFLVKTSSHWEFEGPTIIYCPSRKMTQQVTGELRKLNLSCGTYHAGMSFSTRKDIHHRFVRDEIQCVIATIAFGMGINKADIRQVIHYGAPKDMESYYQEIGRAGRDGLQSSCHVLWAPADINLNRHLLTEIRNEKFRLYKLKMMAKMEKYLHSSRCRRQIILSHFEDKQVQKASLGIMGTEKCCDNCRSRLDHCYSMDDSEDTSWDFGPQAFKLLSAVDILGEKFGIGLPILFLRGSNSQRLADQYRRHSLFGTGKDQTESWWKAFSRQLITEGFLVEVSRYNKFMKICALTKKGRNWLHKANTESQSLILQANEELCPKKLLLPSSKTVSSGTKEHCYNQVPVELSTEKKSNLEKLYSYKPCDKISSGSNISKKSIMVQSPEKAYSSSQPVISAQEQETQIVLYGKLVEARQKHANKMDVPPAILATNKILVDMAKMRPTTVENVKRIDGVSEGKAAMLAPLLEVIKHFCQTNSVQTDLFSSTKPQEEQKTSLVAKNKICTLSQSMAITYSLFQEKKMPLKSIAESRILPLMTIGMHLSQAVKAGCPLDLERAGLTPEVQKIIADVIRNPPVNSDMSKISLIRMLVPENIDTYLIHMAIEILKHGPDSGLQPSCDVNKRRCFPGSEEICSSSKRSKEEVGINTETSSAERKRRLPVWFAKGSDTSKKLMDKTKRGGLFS

SMILES	IC50 (WRN enzyme [1])	IC50 (WRN enzyme [2])	IC50 (SW48 cells)	IC50 (SW620 cells)
CCc1c(N2CCN(C(=O)c3ncnc(C)c3O)CC2)c(=O)c2nn(C3=CCOCC3)nc2n1CC(=O)Nc1ccc(C(F)(F)F)cc1Cl [Example 4]	60.9 nM	88.5 nM	37.2 nM	> 25000 nM
CCc1c(N2CCN(C(=O)c3ncnc(C)c3O)CC2)c(=O)c2nn(C3=CCOCC3)nc2n1CC(=O)Nc1cc(F)c(C(F)(F)F)cc1Cl [Example 15]	70.2 nM	34.3 nM	35.4 nM	> 25000 nM
CCc1c(N2CCN(C(=O)c3ncnc(C)c3O)CC2)c(=O)c2nn(C3=CCOCC3)nc2n1CC(=O)Nc1cc(F)c(Cl)cc1Cl [Example 22]	72.1 nM	46.8 nM	70.7 nM	> 25000 nM
